For one molecule, Ki and EC50 results are on record in ChEMBL document CHEMBL5034020, “Self-Masked Aldehyde Inhibitors: A Novel Strategy for Inhibiting Cysteine Proteases” (J Med Chem, 2021).

Each structure is given as a SMILES string.

Assay [1] addresses Procathepsin L (Homo sapiens, UniProt P07711). Nature of the assay: Inhibition of human Cathepsin L.
Assay [2] deals with SARS-CoV-2. Nature of the assay: Antiviral activity against SARS-CoV-2 infected in human A549 cells transfected with ACE2 assessed as virus-induced cytopathic effect incubated for 4 days by microscopic analysis. In kind it is functional, organism-based. Conditions: Severe acute respiratory syndrome coronavirus 2, A549, 96 h.
A short description of assay [3]: Inhibition of SARS-CoV-2 3CLpro using ACC-SAVLQSGFRK(DNP)-NH2 as substrate assessed as inhibition constant measured for 0.5 to 1 hr by fluorescence based analysis. The arrangement: species or system Severe acute respiratory syndrome coronavirus 2.

Procathepsin L, sequence (P07711 whole entry): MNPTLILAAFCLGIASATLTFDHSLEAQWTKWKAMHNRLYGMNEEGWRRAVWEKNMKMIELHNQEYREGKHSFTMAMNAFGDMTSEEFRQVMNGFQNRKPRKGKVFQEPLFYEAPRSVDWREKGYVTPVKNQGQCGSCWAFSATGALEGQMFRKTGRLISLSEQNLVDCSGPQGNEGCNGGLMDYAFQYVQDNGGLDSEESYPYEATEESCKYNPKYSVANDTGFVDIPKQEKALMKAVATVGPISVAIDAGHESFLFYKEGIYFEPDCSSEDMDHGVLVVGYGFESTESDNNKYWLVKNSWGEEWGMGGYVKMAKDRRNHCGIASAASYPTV

As a reminder, the Ki is the dissociation constant of the complex between target and ligand, obtained from inhibition or displacement. The EC50 is the concentration needed to bring the measured effect to its halfway point. `CC(C)[C@H](NC(=O)OCc1ccccc1)C(=O)N[C@@H](CC1CCCCC1)C(=O)N[C@H](C=O)Cc1ccc[nH]c1=O`: the inhibition constant Ki came to 53 nM in assay [1] and 9 nM in assay [3]. Besides, the EC50 in assay [2] turned out to be 5000 nM.
